Test results taken from US20250019385A1, “SPIROCYCLIC ANNULATED 2-AMINO-3-CYANO THIOPHENES AND DERIVATIVES FOR THE TREATMENT OF CANCER” (Boehringer Ingelheim International GmbH, priority 2023, published 2025).

How the values were obtained:
[1] = Metabolic (microsomal) stability assay, human liver microsomes (HLM); assay type: in vitro ADME; conditions: 1 μM test compound, predicted clearance as percent of liver blood flow
Description: The metabolic degradation of the test compound is assayed at 37° C. with pooled liver microsomes (mouse (MLM), rat (RLM) or human (HLM)). The final incubation volume of 48 μL per time point contains TRIS buffer (pH 7.5; 0.1 M), magnesium chloride (6.5 mM), microsomal protein (0.5 mg/mL for mouse/rat, 1 mg/mL for human specimens) and the test compound at a final concentration of 1 μM. Following a short preincubation period at 37° C., the reactions are initiated by addition of 12 μL beta-nicotinamide adenine dinucleotide phosphate, reduced form (NADPH, 10 mM) and terminated by transferring an aliquot into solvent after different time points (0, 5, 15, 30, 60 min). Additionally, the NADPH-independent degradation is monitored in incubations without NADPH, terminated at the last time point by addition of acetonitrile. The quenched incubations are pelleted by centrifugation (4,000 rpm, 15 min). An aliquot of the supernatant is assayed by LC-MS/MS to quantify the concentration of parent compound in the individual samples.
In vitro intrinsic clearance (CLint,in vitro) is calculated from the time course of the disappearance of the test drug during the microsomal incubation. Each plot is fitted to the first-order elimination rate constant as C(t)=C0*exp(−ke*t), where C(t) and C0 are the concentration of unchanged test drug at incubation time t and that at preincubation and ke is the disappearance rate constant of the unchanged drug. Subsequently, CLint, in vitro (μL min^−1·amount protein) values are converted to predicted CLint,in vivo (mL min^−1·kg^−1) from incubation parameters according to the equation CLint, in vivo=CLint, in vitro×(incubation volume (mL)/amount protein (mg))×(amount protein (mg)/g liver tissue)×(liver weight/body wt.).
For better across species comparison the predicted clearance is expressed as percent of the liver blood flow [% QH] (mL min^−1·kg^−1) in the individual species. In general, high stability (corresponding to low % QH) of the compounds across species is desired.

LOVO cells = experiment: LOVO CTG proliferation assay (120 h) (CRC, G13D); assay type: cell-based; conditions: Homo sapiens
Description: (§1) LOVO cells (ATCC No. CCL-229) are dispensed into black 384-well plates, flat and clear bottom (Greiner, PNr. 781091) at a density of 1000 cells per well in 60 μl DMEM (Sigma D6429)+10% FCS (fetal calf serum, HyClone, SH30084.03). Cells are incubated overnight at 37° C. in a humidified tissue culture incubator at 5% CO2. Compounds (10 mM stock in DMSO) are added at logarithmic dose series using the ECHO acoustic liquid handler system (Beckman Coulter), normalizing for added DMSO and including DMSO controls. All compound treatments are performed in technical duplicates. For the TO time point measurement, untreated cells are analyzed at the time of compound addition. Plates are incubated for 120 h, and cell viability is measured using CellTiter-Glo luminescent cell viability reagent (Promega product code G7570). Viability (stated as percent of control) is defined as relative luminescence units RLU of each well divided by the RLU of cells in DMSO controls. IC50 values are determined from viability measurements by non-linear regression using a four-parameter model.
(§2) IC50 values of representative compounds according to the invention measured with these assays in the indicated cell lines are presented in Table 46.

SK-CO-1 cells = experiment: SK-CO-1 CTG proliferation assay (120 h) (CRC, G12V); assay type: cell-based; conditions: Homo sapiens
Description: as §1, with “SK—CO-1” for “LOVO”, “HTB-39)” for “No. CCL-229)”, “500” for “1000”, “EMEM” for “DMEM”, “M5650)+10%” for “D6429)+10%”
as §2

Ba/F3 cells KRAS G12C = experiment: Ba/F3 proliferation assay (KRAS G12C); assay type: cell-based; conditions: Mus musculus, BaF3, 72 h, AlamarBlue viability
Description: Ba/F3 cells are ordered from DSMZ (ACC300, Lot17) and grown in RPMI-1640 (ATCC 30-2001)+10% FCS+10 ng/mL IL-3 at 37° C. in 5% […] atmosphere. Plasmids containing KRASG12 mutants (i.e. […], G12C, G12V) are obtained from GeneScript. To generate KRASG12-dependent Ba/F3 models, Ba/F3 cells are transduced with retroviruses containing vectors that harbor KRASG12 isoforms. Platinum-E cells (Cell Biolabs) are used for retrovirus packaging. Retrovirus is added to Ba/F3 cells. To ensure infection, 4 μg/mL polybrene is added and cells are spinfected. Infection efficiency is confirmed by measuring GFP-positive cells using a cell analyzer. Cells with an infection efficiency of 10% to 20% are further cultivated and puromycin selection with 1 μg/mL is initiated. As a control, parental Ba/F3 cells are used to show selection status. Selection is considered successful when parental Ba/F3 cells cultures died. To evaluate the transforming potential of KRASG12 mutations, the growth medium is no longer supplemented with IL-3. Ba/F3 cells harboring the empty vector are used as a control. Approximately ten days before conducting the experiments, puromycin is left out.
For proliferation assays, Ba/F3 cells are seeded into 384-well plates at 1.5×1 (M cells/60 μL in growth media (RPMI-1640+10% FCS). Compounds (10 mM stock in DMSO) are added at logarithmic dose series using the ECHO acoustic liquid handler system (Beckman Coulter), normalizing for added DMSO and including DMSO controls. All compound treatments are performed in technical duplicates. For the TO time point measurement, untreated cells are analyzed at the time of compound addition. Treated cells are incubated for 72 h at 37° C. with 5% CO2 and cell viability is measured in the PerkinElmer Envision Multimode Reader using AlamarBlue™ (ThermoFisher) viability stain. Viability (stated as percent of control) is defined as relative fluorescence units RFU of each well divided by the RFU of cells in DMSO controls. IC50 values are determined from viability measurements by non-linear regression using a four-parameter model.

Row | Structure (SMILES) | HLM QH [1] [%] | IC50 (LOVO cells) [µM] | IC50 (SK-CO-1 cells) [µM] | IC50 (Ba/F3 cells KRAS G12C) [µM]
1 | COCCn1c(=O)n([C@@H]2CCOC2)c2nc(-c3onc4c3CCC[C@@]43CCCc4sc(N)c(C#N)c43)nc(O[C@@H](C)[C@@H]3CCCN3C)c21 [I-1] | 65 | 0.005 | 0.008 | 0.015
2 | CO[C@H]1C[C@@H]([C@H](C)Oc2nc(-c3onc4c3CCC[C@@]43CCCc4sc(N)c(C#N)c43)nc3c2n(C)c(=O)n3[C@@H]2CCOC2)N(C)C1 [I-2] | 73 | 0.003 | 0.043 | 0.041
3 | C[C@H](Oc1nc(-c2onc3c2CCC[C@@]32CCCc3sc(N)c(C#N)c32)nc2c1n(C)c(=O)n2[C@@H]1CCOC1)[C@@H]1[C@H](F)CCN1C [I-4] | 49 | 0.181 | 0.077 | 0.058
4 | C[C@H](Oc1nc(-c2onc3c2CCC[C@@]32CCCc3sc(N)c(C#N)c32)nc2c1n(C)c(=O)n2[C@@H]1CCOC1)[C@@H]1[C@@H](F)CCN1C [I-5] | 65 | 0.029 | 0.047 | 0.031
5 | CO[C@H]1CCN(C)[C@@H]1[C@H](C)Oc1nc(-c2onc3c2CCC[C@@]32CCCc3sc(N)c(C#N)c32)nc2c1n(C)c(=O)n2[C@@H]1CCCOC1 [I-6] | 73 | 0.003 | 0.007 | 0.004
6 | C[C@H](Oc1nc(-c2onc3c2CCC[C@@]32CCCc3sc(N)c(C#N)c32)nc2c1[nH]c(=O)n2[C@@H]1CCOC1)[C@@H]1CCCN1C [I-8] | <24 | 0.258 | 0.019 | 0.041
7 | C[C@H](Oc1nc(-c2onc3c2CCC[C@@]32CCCc3sc(N)c(C#N)c32)nc2c1n(C)c(=O)n2C1CCOCC1)[C@@H]1CCCN1C [I-10] | 33 | 0.053 | 0.069 | 0.043
8 | C[C@H](Oc1nc(-c2onc3c2CCC[C@@]32CCCc3sc(N)c(C#N)c32)nc2c1n(C)c(=O)n2[C@H]1CCCOC1)[C@@H]1CCCN1C [I-11] |  | 0.541 | 0.445 | 0.31
9 | CO[C@@H]1C[C@@H]([C@H](C)Oc2nc(-c3onc4c3CCC[C@@]43CCCc4sc(N)c(C#N)c43)nc3c2n(C)c(=O)n3[C@@H]2CCCOC2)N(C)C1 [I-14] | 27 | 0.006 | 0.007 | 0.005
10 | CO[C@H]1C[C@H](n2c(=O)n(C)c3c(O[C@@H](C)[C@@H]4CCCN4C)nc(-c4onc5c4CCC[C@@]54CCCc5sc(N)c(C#N)c54)nc32)C1 [I-16] | <24 | 0.404 | 0.243 | 0.288
11 | C[C@@H]1COC[C@H](n2c(=O)n(C)c3c(O[C@@H](C)[C@@H]4CCCN4C)nc(-c4onc5c4CCC[C@@]54CCCc5sc(N)c(C#N)c54)nc32)C1 [I-44] |  | 0.012 | 0.005 | 0.003
12 | CO[C@H]1CCN(C)[C@@H]1[C@H](C)Oc1nc(-c2onc3c2CCC[C@@]32CCCc3sc(N)c(C#N)c32)nc2c1n(C)c(=O)n2[C@H]1COC[C@@H](C)C1 [I-51] | 74 |  |  | 0.005

The next lines start with the values.

Row | HLM QH [1] [%] | IC50 (LOVO cells) [µM] | IC50 (SK-CO-1 cells) [µM] | IC50 (Ba/F3 cells KRAS G12C) [µM] | Structure (SMILES)
13 | 42 | 0.015 | 0.004 | 0.006 | CO[C@@H]1C[C@@H]([C@H](C)Oc2nc(-c3onc4c3CCC[C@@]43CCCc4sc(N)c(C#N)c43)nc3c2n(C)c(=O)n3[C@@H]2CCOC2)N(C)C1 [I-3]
14 | <24 | 0.563 | 0.19 | 0.099 | COCCn1c(=O)n(C)c2c(O[C@@H](C)[C@@H]3CCCN3C)nc(-c3onc4c3CCC[C@@]43CCCc4sc(N)c(C#N)c43)nc21 [I-7]
15 | <24 | 0.09 | 0.075 | 0.038 | C[C@H](Oc1nc(-c2onc3c2CCC[C@@]32CCCc3sc(N)c(C#N)c32)nc2c1n(C)c(=O)n2[C@H]1CCOC1)[C@@H]1CCCN1C [I-9]
16 | <24 | 0.019 | 0.005 | 0.004 | C[C@H](Oc1nc(-c2onc3c2CCC[C@@]32CCCc3sc(N)c(C#N)c32)nc2c1n(C)c(=O)n2[C@@H]1CCCOC1)[C@@H]1CCCN1C [I-12]
17 | <24 | 0.039 | 0.048 | 0.038 | C[C@H](Oc1nc(-c2onc3c2CCC[C@@]32CCCc3sc(N)c(C#N)c32)nc2c1[nH]c(=O)n2[C@@H]1CCCOC1)[C@@H]1CCCN1C [I-13]
18 | <24 | 0.007 | 0.036 | 0.016 | C[C@H](Oc1nc(-c2onc3c2CCC[C@@]32CCCc3sc(N)c(C#N)c32)nc2c1n(C)c(=O)n2C12COC(C1)C2)[C@@H]1CCCN1C [I-15]
19 | <24 | 0.014 | 0.083 | 0.037 | C[C@H](Oc1nc(-c2onc3c2CCC[C@@]32CCCc3sc(N)c(C#N)c32)nc2c1n(C)c(=O)n2[C@H]1CC2CCC1O2)[C@@H]1CCCN1C (stereo partly drawn) [I-17]
20 | <24 |  |  | 0.001 | C[C@H](Oc1nc(-c2onc3c2CCC[C@@]32CCCc3sc(N)c(C#N)c32)nc2c1n(C)c(=O)n2[C@H]1CO[C@@H](C)C1)[C@@H]1CCCN1C [I-47]
21 | 35 |  |  | 0.003 | C[C@H](Oc1nc(-c2onc3c2CCC[C@@]32CCCc3sc(N)c(C#N)c32)nc2c1n(C)c(=O)n2[C@H]1CO[C@@H](C)C1)[C@@H]1CC[C@H](C)N1C [I-50]
22 | 46 |  |  | 0.008 | CO[C@@H]1C[C@@H]([C@H](C)Oc2nc(-c3onc4c3CCC[C@@]43CCCc4sc(N)c(C#N)c43)nc3c2n(C)c(=O)n3[C@H]2COC[C@@H](C)C2)N(C)C1 [I-52]
23 |  | 0.109 | 0.005 | 0.003 | C[C@H](Oc1nc(-c2noc3c2CCC[C@@]32CCCc3sc(N)c(C#N)c32)nc2c1CN(C1COC1)C[C@]21CCOC1)[C@@H]1CC[C@H](C)N1C [II-17]
